This note sets out measurements from ChEMBL document CHEMBL1201862, “PubChem BioAssay data set” (2004).

SMILES strings stand for the structures.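 1) Cells in 96-well plates. 2) Compound, 48 h, 5 concentrations. 3) Linear interpolation between surrounding doses. 4) Unreached endpoint = highest concentration. GI50 is the concentration that inhibits growth by half.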 Activity calls are given as the source filed them. Rule as the data show it: active = GI50 up to about 1.1 µM and inactive = higher.

Test systems include A549; ACHN; EKVX; IGROV-1; LOX IMVI; M14; MDA-MB-435; NCI-H23; OVCAR-3; OVCAR-5; RPMI-8226; SF-295; SK-MEL-28; SK-MEL-2; SNB-19; T47D; A498; MOLT-4; U-251; Malme-3M.
Holding throughout (test): NCI tumour cell line growth inhibition, 48 h

As for `NC(CC(=O)OCc1ccccc1)C(=O)OCc1ccccc1` (stereo not drawn), the GI50 in the assay with A549, in the assay on ACHN, with EKVX, in the assay on IGROV-1, with LOX IMVI and in the assay with M14 was > 100 µM (inactive) in each case. Further, the GI50 with MDA-MB-435, in the assay with NCI-H23, in the assay on OVCAR-3, in the assay with OVCAR-5, with RPMI-8226 and with SF-295 was > 100 µM (inactive) in each case. Besides, the GI50 with SK-MEL-28, in the assay on SK-MEL-2, in the assay on SNB-19 and in the assay on T47D was > 100 µM (inactive) in each case.

As for `COC(=O)C1CCC(=O)N1C(c1ccc(OC)cc1)c1cc(OC)c(OC)c(OC)c1` (stereo not drawn), the GI50 with A498 is 0.705 µM (active); in the assay on A549, 0.449 µM (active); with ACHN, 0.52 µM (active); in the assay with IGROV-1, 0.274 µM (active); in the assay on LOX IMVI it was 0.356 µM (active); with M14, 0.322 µM (active). In addition, the GI50 was 0.057 µM (active) with MDA-MB-435; 0.39 µM (active) with MOLT-4; 0.553 µM (active) in the assay with NCI-H23; 0.261 µM (active) in the assay with OVCAR-3; 0.592 µM (active) with OVCAR-5; 0.239 µM (active) in the assay with RPMI-8226. In addition, the GI50 in the assay on SF-295 was 0.0762 µM (active); in the assay with SK-MEL-28, > 100 µM (inactive); in the assay with SK-MEL-2, 0.649 µM (active); in the assay with SNB-19, 0.531 µM (active); in the assay on T47D it was > 100 µM (inactive); with U-251, 0.364 µM (active).

Regarding `CC(=O)NC(C)(C)C1CC=C(C)/C(=N\O)C1` (stereo not drawn), the GI50 with A549, in the assay with EKVX, with IGROV-1, in the assay with LOX IMVI, with M14 and with MDA-MB-435 was > 100 µM (inactive) in each case. The GI50 with MOLT-4, in the assay with NCI-H23, with OVCAR-3, in the assay with OVCAR-5, with SF-295 and with SK-MEL-28 was > 100 µM (inactive) in each case. Also, the GI50 in the assay on SNB-19, with T47D and with U-251 was > 100 µM (inactive) throughout.

Consider `CC1=C(C(=O)NNC(=O)C[N+](C)(C)C)CC(C(=O)NNC(=O)C[N+](C)(C)C)=C(C)N1`, for which the GI50 was 61.7 µM (inactive) in the assay on A498; > 100 µM (inactive) in the assay on A549; > 100 µM (inactive) in the assay with ACHN; > 100 µM (inactive) in the assay with EKVX; > 100 µM (inactive) with IGROV-1; > 100 µM (inactive) with LOX IMVI. Moreover, the GI50 with M14, in the assay with MDA-MB-435, in the assay with MOLT-4, with NCI-H23, in the assay with OVCAR-3 and in the assay on OVCAR-5 was > 100 µM (inactive) in each case. Also, the GI50 in the assay with RPMI-8226 is > 100 µM (inactive); in the assay on SF-295, > 100 µM (inactive); in the assay with SK-MEL-2, > 100 µM (inactive); with SNB-19 it was > 100 µM (inactive); in the assay with T47D it was 63.2 µM (inactive); in the assay with U-251, > 100 µM (inactive).

As to `C/C(CN1C(=O)c2ccccc2C1=O)=N\NS(=O)(=O)c1ccc(Br)cc1`, the GI50 in the assay with A498, in the assay on A549, in the assay on ACHN, in the assay with EKVX, with IGROV-1 and in the assay with LOX IMVI was > 100 µM (inactive) in each case. The GI50 in the assay on M14, in the assay with MOLT-4, in the assay on Malme-3M, in the assay with NCI-H23, in the assay on OVCAR-3 and in the assay on OVCAR-5 was > 100 µM (inactive) each time. The GI50 with RPMI-8226, in the assay with SF-295, in the assay with SK-MEL-28, in the assay on SK-MEL-2, in the assay with SNB-19 and with U-251 was > 100 µM (inactive) in each case.

As to `Cc1ccc2c(=O)cc(Cc3cccs3)[nH]c2n1`, the GI50 in the assay with A549, in the assay with EKVX, in the assay with IGROV-1, in the assay with LOX IMVI, with M14 and in the assay on MDA-MB-435 was > 100 µM (inactive) throughout. Also, the GI50 in the assay on MOLT-4, with Malme-3M, with NCI-H23, in the assay with OVCAR-3, in the assay with OVCAR-5 and in the assay on RPMI-8226 was > 100 µM (inactive) in each case. Further, the GI50 in the assay on SF-295, in the assay with SK-MEL-28, in the assay on SK-MEL-2, with SNB-19, in the assay with T47D and with U-251 was > 100 µM (inactive) each time.

In the case of `S=C(c1c[nH]c2ccccc12)N1CCOCC1`, the GI50 in the assay with A498 is > 100 µM (inactive); in the assay with ACHN, > 100 µM (inactive); in the assay with EKVX it was 43.1 µM (inactive); in the assay on IGROV-1, 36.3 µM (inactive); in the assay with LOX IMVI it was > 100 µM (inactive); in the assay on M14 it was > 100 µM (inactive). Also, the GI50 with MDA-MB-435 was > 100 µM (inactive); with MOLT-4, > 100 µM (inactive); in the assay with Malme-3M it was 25 µM (inactive); with NCI-H23, > 100 µM (inactive); with OVCAR-3 it was > 100 µM (inactive); in the assay on OVCAR-5 it was > 100 µM (inactive). Besides, the GI50 with RPMI-8226, with SF-295, in the assay with SK-MEL-28, with SK-MEL-2, in the assay with SNB-19 and in the assay on U-251 was > 100 µM (inactive) each time.

`C[n+]1c(/C=C/c2ccc(/C=N/NC(=O)c3ccc(C(=O)N/N=C/c4ccc(/C=C/c5cn6ccccc6[n+]5C)cc4)cc3)cc2)cn2ccccc21`: the GI50 in the assay with A549, with ACHN, in the assay on EKVX, in the assay on IGROV-1, with LOX IMVI and with M14 was > 100 µM (inactive) each time. Besides, the GI50 with MDA-MB-435 was > 100 µM (inactive); in the assay with MOLT-4 it was 30.9 µM (inactive); in the assay on Malme-3M it was > 100 µM (inactive); in the assay on NCI-H23, > 100 µM (inactive); in the assay on OVCAR-3, > 100 µM (inactive); with OVCAR-5, > 100 µM (inactive). The GI50 in the assay on RPMI-8226, in the assay with SF-295, in the assay with SK-MEL-28, with SNB-19, with T47D and in the assay on U-251 was > 100 µM (inactive) each time.

For `C=C(C)COc1cc(/N=C(/S)OC(C)C)ccc1Cl`, the GI50 in the assay with A549 was 12.7 µM (inactive); with ACHN it was 17.1 µM (inactive); with EKVX, 11.8 µM (inactive); in the assay on IGROV-1, 16.6 µM (inactive); in the assay on LOX IMVI, 16.3 µM (inactive); with M14, 17.2 µM (inactive). In addition, the GI50 is 15.2 µM (inactive) in the assay on MDA-MB-435; 12.1 µM (inactive) with MOLT-4; 16.1 µM (inactive) with NCI-H23; 15.8 µM (inactive) with OVCAR-3; 15.7 µM (inactive) in the assay with OVCAR-5; 20 µM (inactive) with RPMI-8226. For the same molecule, the GI50 in the assay on SF-295 was 15.5 µM (inactive); in the assay on SK-MEL-28 it was 17.3 µM (inactive); in the assay on SK-MEL-2 it was 13.6 µM (inactive); with SNB-19, 18.8 µM (inactive); with T47D, 13.3 µM (inactive); in the assay on U-251 it was 16.9 µM (inactive).

Take `OCC1NCC(O)C(O)C1O` (stereo not drawn): the GI50 in the assay on A498, with A549, in the assay on ACHN, in the assay with EKVX, in the assay with IGROV-1 and in the assay with M14 was > 100 µM (inactive) each time. Also, the GI50 is > 100 µM (inactive) in the assay on MDA-MB-435; > 100 µM (inactive) in the assay with MOLT-4; 22.4 µM (inactive) in the assay with Malme-3M; > 100 µM (inactive) in the assay with NCI-H23; > 100 µM (inactive) in the assay with OVCAR-3; > 100 µM (inactive) in the assay on OVCAR-5. In addition, the GI50 is > 100 µM (inactive) with RPMI-8226; > 10 µM (inactive) in the assay on SF-295; > 100 µM (inactive) in the assay on SK-MEL-28; > 100 µM (inactive) with SNB-19; > 100 µM (inactive) in the assay on U-251.

With `Cc1nn(C(=O)c2ccc(Cl)cc2)c2c1C(c1ccc(Cl)cc1)SC(=N)N2` (stereo not drawn), the GI50 in the assay on A549, with ACHN, with EKVX, with IGROV-1, in the assay on LOX IMVI and in the assay on M14 was > 10 µM (inactive) throughout. In addition, the GI50 in the assay with MDA-MB-435, with MOLT-4, with Malme-3M, in the assay on NCI-H23, with OVCAR-3 and with OVCAR-5 was > 10 µM (inactive) each time. Moreover, the GI50 in the assay on RPMI-8226, in the assay with SF-295, in the assay on SK-MEL-28, in the assay on SK-MEL-2, in the assay with SNB-19 and with T47D was > 10 µM (inactive) each time. Also, in the assay with U-251, the GI50 was > 10 µM (inactive).
